Tested on: bacterial isolates
Experiment: microbe, parasite or virus in culture
Type: cell-based
Conditions: for MBI 26 + Teicoplanin: in combination with Teicoplanin

KWKSFIKKLTSAAKKVVTTAKPLISS [MBI 26]
0.25 µg/mL: Ciprofloxacin MIC + Peptide (A. calcoaceticus 1) | Ciprofloxacin MIC + Peptide (A. calcoaceticus 6) | Ciprofloxacin MIC + Peptide (E. cloacae 13) | Ciprofloxacin MIC + Peptide (E. cloacae 15) | Ciprofloxacin MIC + Peptide (E. cloacae 16)
>128 µg/mL: Peptide MIC Alone (1. Amikacin, S. maltophilia SMA037) | Peptide MIC Alone (2. Ceftriaxone, B. cepacia BC003) | Peptide MIC Alone (3. Ciprofloxacin, E. cloacae 13) | Peptide MIC Alone (4. Gentamicin, S. maltophilia SMA016) | Peptide MIC Alone (E. faecalis EFS005) | Peptide MIC Alone (H. influenzae 1, Piperacillin section) | Peptide MIC Alone (H. influenzae 2, Piperacillin section) | Peptide MIC Alone (P. aeruginosa 7, Piperacillin section) | Peptide MIC Alone (P. aeruginosa 28, Piperacillin section)
>32 µg/mL: Peptide MIC Alone (3. Ciprofloxacin, A. calcoaceticus 6) | Peptide MIC Alone (3. Ciprofloxacin, E. cloacae 15) | Peptide MIC Alone (3. Ciprofloxacin, E. cloacae 16) | Peptide MIC Alone (3. Ciprofloxacin, P. aeruginosa 23) | Peptide MIC Alone (3. Ciprofloxacin, P. aeruginosa 24) | Peptide MIC Alone (3. Ciprofloxacin, S. maltophilia 34) | Peptide MIC Alone (3. Ciprofloxacin, S. maltophilia 35) | Peptide MIC Alone (A. calcoaceticus 7, Piperacillin section) | Peptide MIC Alone (A. calcoaceticus 8, Piperacillin section) | Peptide MIC Alone (E. cloacae 13, Piperacillin section)
0.5 µg/mL: Gentamicin MIC + Peptide (A. baumannii ABI002) | Ciprofloxacin MIC + Peptide (P. aeruginosa 23) | Ciprofloxacin MIC + Peptide (P. aeruginosa 24)
0.125 µg/mL: Peptide MIC + Ceftriaxone (A. baumannii ABI005) | Peptide MIC + Ceftriaxone (B. cepacia BC003)
1 µg/mL: Peptide MIC Alone (2. Ceftriaxone, S. aureus SA025 MRSA) | Peptide MIC + Ciprofloxacin (A. calcoaceticus 1) | Peptide MIC + Mupirocin (E. coli ECO5) | Peptide MIC + Mupirocin (E. coli SBECO2) | Peptide MIC + Vancomycin (E. faecalis EFS012) | Peptide MIC + Vancomycin (E. faecalis EFS013) | MBI 26 + Teicoplanin (E. faecium 97002 VanB) | MBI 26 + Teicoplanin (E. faecium 97003 VanB) | MBI 26 + Teicoplanin (E. faecium 97007 VanB) | MBI 26 + Teicoplanin (E. faecium 97009 VanB) | Vancomycin MIC + Peptide (E. faecium EFM016) | Peptide MIC + Ceftriaxone (K. pneumoniae KP003)
>64 µg/mL: Peptide MIC Alone (3. Ciprofloxacin, A. calcoaceticus 1) | Peptide MIC Alone (P. aeruginosa 23, Piperacillin section)
128 µg/mL: Peptide MIC Alone (2. Ceftriaxone, P. aeruginosa PA008) | Peptide MIC Alone (2. Ceftriaxone, P. aeruginosa PA024) | Peptide MIC Alone (3. Ciprofloxacin, P. aeruginosa PA41) | Peptide MIC Alone (3. Ciprofloxacin, P. aeruginosa PA77) | Peptide MIC Alone (3. Ciprofloxacin, S. aureus SA11) | Peptide MIC Alone (P. aeruginosa 41, Piperacillin section) | Peptide MIC Alone (P. aeruginosa PA2, Mupirocin section)
4 µg/mL: Peptide MIC Alone (2. Ceftriaxone, S. maltophilia SMA019) | Peptide MIC Alone (2. Ceftriaxone, S. maltophilia SMA020) | Peptide MIC + Gentamicin (A. baumannii ABI002) | Piperacillin MIC + Peptide (A. calcoaceticus 7) | Piperacillin MIC + Peptide (A. calcoaceticus 8) | Peptide MIC + Ciprofloxacin (E. cloacae 13) | Piperacillin MIC + Peptide (E. cloacae 13) | Ceftriaxone MIC + Peptide (E. cloacae ECL015) | Peptide MIC + Ceftriaxone (E. cloacae ECL015) | Vancomycin MIC + Peptide (E. faecalis EFS005) | MBI 26 + Teicoplanin (E. faecium 97001 VanB) | MBI 26 + Teicoplanin (E. faecium 97006 VanB) | MBI 26 + Teicoplanin (E. faecium 97008 VanB) | MBI 26 + Teicoplanin (E. faecium 97010 VanB) | MBI 26 + Teicoplanin (E. faecium 97011 VanB) | MBI 26 + Teicoplanin (E. faecium 97012 VanB) | MBI 26 + Teicoplanin (E. faecium 97014 VanB) | MBI 26 + Teicoplanin (E. faecium 97015 VanB) | MBI 26 + Teicoplanin (E. faecium 97016 VanB) | Vancomycin MIC + Peptide (E. faecium EFM014) | Peptide MIC + Vancomycin (E. faecium EFM016) | Ceftriaxone MIC + Peptide (K. pneumoniae KP003) | Piperacillin MIC + Peptide (P. aeruginosa 23) | Peptide MIC + Piperacillin (P. aeruginosa 41)
30 µg/mL: Mupirocin MIC + Peptide (E. coli ECO5) | Mupirocin MIC + Peptide (E. coli SBECO2)
100 µg/mL: Mupirocin MIC + Peptide (P. aeruginosa PA4)
64 µg/mL: Peptide MIC Alone (2. Ceftriaxone, S. epidermidis SE012) | Peptide MIC Alone (4. Gentamicin, P. aeruginosa PA041) | MBI 26 Alone (E. faecalis 97040 VanB) | MBI 26 Alone (E. faecalis 97041 VanB) | MBI 26 Alone (E. faecalis 97042 VanB) | MBI 26 Alone (E. faecalis 97043 VanB) | MBI 26 Alone (E. faecium 97001 VanB) | MBI 26 Alone (E. faecium 97002 VanB) | MBI 26 Alone (E. faecium 97003 VanB) | MBI 26 Alone (E. faecium 97005 VanB) | MBI 26 Alone (E. faecium 97006 VanB) | MBI 26 Alone (E. faecium 97007 VanB) | MBI 26 Alone (E. faecium 97008 VanB) | MBI 26 Alone (E. faecium 97010 VanB) | MBI 26 Alone (E. faecium 97011 VanB) | MBI 26 Alone (E. faecium 97012 VanB) | MBI 26 Alone (E. faecium 97013 VanB) | MBI 26 Alone (E. faecium 97014 VanB) | MBI 26 Alone (E. faecium 97015 VanB) | MBI 26 Alone (E. faecium 97016 VanB) | Peptide MIC Alone (E. faecium EFM012) | Piperacillin MIC + Peptide (H. influenzae 2) | Peptide MIC + Mupirocin (P. aeruginosa PA2)
2 µg/mL: Peptide MIC Alone (2. Ceftriaxone, A. baumannii ABI005) | Peptide MIC + Amikacin (A. baumannii ABI001) | Peptide MIC + Gentamicin (A. baumannii ABI001) | Peptide MIC + Ceftriaxone (A. baumannii ABI002) | Amikacin MIC + Peptide (A. baumannii ABI003) | Peptide MIC + Amikacin (A. baumannii ABI003) | Peptide MIC + Ceftriaxone (E. cloacae ECL014) | Vancomycin MIC + Peptide (E. faecalis EFS012) | Vancomycin MIC + Peptide (E. faecalis EFS013) | MBI 26 + Teicoplanin (E. faecium 97005 VanB) | Vancomycin MIC + Peptide (E. faecium EFM010) | Vancomycin MIC + Peptide (E. faecium EFM011) | Vancomycin MIC + Peptide (E. faecium EFM012) | Peptide MIC + Piperacillin (H. influenzae 2) | Peptide MIC + Ciprofloxacin (P. aeruginosa 23) | Peptide MIC + Ciprofloxacin (P. aeruginosa 24)
16 µg/mL: Peptide MIC Alone (2. Ceftriaxone, K. pneumoniae KP003) | Peptide MIC Alone (4. Gentamicin, S. maltophilia SMA017) | Gentamicin MIC + Peptide (A. baumannii ABI001) | Ceftriaxone MIC + Peptide (A. baumannii ABI002) | Peptide MIC + Ciprofloxacin (A. calcoaceticus 6) | Peptide MIC + Ciprofloxacin (E. cloacae 16) | Peptide MIC + Vancomycin (E. faecalis EFS005) | Peptide MIC Alone (E. faecalis EFS012) | Peptide MIC Alone (E. faecalis EFS013) | Peptide MIC + Vancomycin (E. faecium EFM012) | Piperacillin MIC + Peptide (P. aeruginosa 28)
10 µg/mL: Mupirocin MIC + Peptide (P. aeruginosa PA2)
8 µg/mL: Peptide MIC Alone (1. Amikacin, A. baumannii ABI001) | Peptide MIC Alone (1. Amikacin, A. baumannii ABI003) | Peptide MIC Alone (2. Ceftriaxone, A. baumannii ABI002) | Peptide MIC Alone (2. Ceftriaxone, E. cloacae ECL014) | Peptide MIC Alone (4. Gentamicin, A. baumannii ABI001) | Peptide MIC Alone (4. Gentamicin, A. baumannii ABI002) | Amikacin MIC + Peptide (A. baumannii ABI001) | Ceftriaxone MIC + Peptide (A. baumannii ABI005) | Peptide MIC + Piperacillin (A. calcoaceticus 7) | Peptide MIC + Piperacillin (A. calcoaceticus 8) | Ceftriaxone MIC + Peptide (B. cepacia BC003) | Peptide MIC + Piperacillin (E. cloacae 13) | Peptide MIC + Ciprofloxacin (E. cloacae 15) | Peptide MIC Alone (E. coli ECO5, Mupirocin section) | Peptide MIC Alone (E. coli SBECO2, Mupirocin section) | MBI 26 + Teicoplanin (E. faecalis 97040 VanB) | MBI 26 + Teicoplanin (E. faecalis 97041 VanB) | MBI 26 + Teicoplanin (E. faecalis 97042 VanB) | MBI 26 + Teicoplanin (E. faecalis 97043 VanB) | MBI 26 + Teicoplanin (E. faecium 97013 VanB) | Peptide MIC + Vancomycin (E. faecium EFM010) | Peptide MIC + Vancomycin (E. faecium EFM011) | Peptide MIC + Vancomycin (E. faecium EFM014) | Peptide MIC Alone (E. faecium EFM016) | Peptide MIC + Piperacillin (H. influenzae 1)
32 µg/mL: Peptide MIC Alone (1. Amikacin, S. maltophilia SMA021) | Peptide MIC Alone (2. Ceftriaxone, E. cloacae ECL015) | Peptide MIC Alone (2. Ceftriaxone, S. epidermidis SE007) | Ceftriaxone MIC + Peptide (E. cloacae ECL014) | MBI 26 Alone (E. faecium 97009 VanB) | Peptide MIC Alone (E. faecium EFM010) | Peptide MIC Alone (E. faecium EFM011) | Peptide MIC Alone (E. faecium EFM014) | Piperacillin MIC + Peptide (H. influenzae 1) | Peptide MIC + Piperacillin (P. aeruginosa 7) | Piperacillin MIC + Peptide (P. aeruginosa 7) | Peptide MIC + Piperacillin (P. aeruginosa 23) | Peptide MIC + Piperacillin (P. aeruginosa 28) | Piperacillin MIC + Peptide (P. aeruginosa 41) | Peptide MIC + Mupirocin (P. aeruginosa PA4)

— patent publication US20020035061A1, “COMPOSITIONS AND METHODS FOR TREATING INFECTIONS USING CATIONIC PEPTIDES ALONE OR IN COMBINATION WITH ANTIBIOTICS” (priority 1996, published 2002)
